Test results as given in patent publication US20160136192A1, “METHODS AND COMPOSITIONS FOR ENHANCING COGNITIVE PERFORMANCE” (ABBOTT LABORATORIES, priority 2013, published 2016).

System: NMDAR dependant hippocampal LTP
Assay: NMDAR dependant LTP (fEPSP amplitude) induced by weak tetanus, recorded on hippocampal brain slices in vitro with MEA
Assay type: cell-based, mice
Conditions: mouse hippocampal slices, 10 stimulations at 100 Hz for 0.1 seconds

Row | SMILES | effect on NMDAR dependant hippocampal LTP induced by weak tetanic stimulation (10 micromolar (μM)) | effect on NMDAR dependant hippocampal LTP induced by weak tetanic stimulation (15 micromolar) | effect on NMDAR dependant hippocampal LTP induced by weak tetanic stimulation (20 micromolar (μM)) | effect on NMDAR dependant hippocampal LTP induced by weak tetanic stimulation (30 micromolar (μM)) | effect on NMDAR dependant hippocampal LTP induced by weak tetanic stimulation (40 micromolar) | effect on NMDAR dependant hippocampal LTP induced by weak tetanic stimulation (50 micromolar)
1 | C[N+](C)(C)CCO.[Cl-] [choline chloride, Choline chloride] | did not produce any effect | did not produce any effect | did not produce any effect | significantly enhanced | significantly enhanced | significantly enhanced
2 | CCCCCCCC/C=C\CCCCCCCC(=O)OCC [oleic acid (ethyl ester), Oleic acid ethyl ester] | did not produce any effect |  | significantly enhanced | significantly enhanced |  | 
